Experimental data published in ChEMBL document CHEMBL1143225, “Neurosteroid analogues. 14. Alternative ring system scaffolds: GABA modulatory and anesthetic actions of cyclopenta[b]phenanthrenes and cyclopenta[b]anthracenes” (J Med Chem, 2008).
The source made the active and inactive calls. The calls are words filed in the database; no cut-off is given here.

Assays:
Xenopus laevis [1] = experiment: Anesthetic effect on Xenopus lavies tadpole assessed as loss of swimming reflex at 10 uM; format: functional, organism-based
Oocyte [2] = experiment: Activity at rat GABAA alpha-1-beta-2-gamma-2L receptor expressed in Xenopus laevis oocytes assessed as gating effect at 10 uM by electrophysiology method; format: cell-based
Oocyte [3] = experiment: Activity at rat GABAA alpha-1-beta-2-gamma-2L receptor expressed in Xenopus lavies oocytes assessed as ratio of effect on current at 10 uM drug to absence of compound by electrophysiology method; format: cell-based
Oocyte [4] = experiment: Activity at rat GABAA alpha-1-beta-2-gamma-2L receptor expressed in Xenopus lavies oocytes assessed as ratio of effect on current at 0.1 uM drug to absence of compound by electrophysiology method; format: cell-based
Xenopus laevis [5] = experiment: Anesthetic effect on Xenopus lavies tadpole assessed as loss of righting reflex; format: functional
[6] = Displacement of [35S]TBPS from GABAA receptor in rat brain membrane; format: cell membranes
Oocyte [7] = experiment: Activity at rat GABAA alpha-1-beta-2-gamma-2L receptor expressed in Xenopus lavies oocytes assessed as ratio of effect on current at 1 uM drug to absence of compound by electrophysiology method; format: cell-based
Xenopus laevis [8] = experiment: Anesthetic effect on Xenopus lavies tadpole assessed as loss of swimming reflex; format: functional
[9] = (§1) Activity at rat GABAA alpha-1-beta-2-gamma-2L receptor expressed in HEK293 cells assessed as macroscopic current amplitude by electrophysiological method; format: cell-based
HEK293 [10] = experiment: as §1; format: cell-based
[11] = (§2) Activity at rat GABAA alpha-1Q241L/Y410F receptor mutant expressed in HEK293 cells assessed as macroscopic current amplitude by electrophysiological method; format: cell-based
HEK293 [12] = experiment: as §2; format: cell-based

C[C@]12CC[C@@H]3C[C@H](CCO)CC[C@H]3[C@@H]1CCC2=O
Activity (Xenopus laevis [1]): inactive
Ratio (Oocyte [2]): 0.03
Ratio (Oocyte [3]): 1.05
Ratio (Oocyte [4]): 0.99
ED50 (Xenopus laevis [5]): 16.4 µM
IC50 [6]: 4.17 µM
Ratio (Oocyte [7]): 1.03

C[C@]12C[C@H]3CC[C@H](CCO)C[C@@H]3C[C@@H]1CC[C@@]21CO1
Activity (Xenopus laevis [1]): inactive
Ratio (Oocyte [2]): 0.03
Ratio (Oocyte [3]): 5.37
Ratio (Oocyte [4]): 0.86
ED50 (Xenopus laevis [5]): 3.46 µM
IC50 [6]: 1.17 µM
Ratio (Oocyte [7]): 1.54

C[C@]12CC[C@@H]3C[C@H](CCO)CC[C@H]3[C@@H]1CC[C@@]21CO1
Ratio (Oocyte [2]): 0.04
Ratio (Oocyte [3]): 20
ED50 (Xenopus laevis [8]): 5.48 µM
Ratio (Oocyte [4]): 1.1
ED50 (Xenopus laevis [5]): 3.17 µM
IC50 [6]: 1.58 µM
Ratio (Oocyte [7]): 4.11

C[C@]12C[C@H]3C[C@H]4CC[C@@H](O)C[C@@H]4C[C@@H]3C[C@@H]1CC[C@@]21CO1
Ratio (Oocyte [2]): 0.16
Ratio (Oocyte [3]): 26.3
EC50 [9]: 0.41 µM
Activity (HEK293 [10]): 294%
ED50 (Xenopus laevis [8]): 1.73 µM
Ratio (Oocyte [4]): 1.53
EC50 [11]: 0.39 µM
Activity (HEK293 [12]): 237%
ED50 (Xenopus laevis [5]): 0.48 µM
IC50 [6]: 0.06 µM
Ratio (Oocyte [7]): 10.8

C[C@]12C[C@H]3CC[C@H](CCO)C[C@@H]3C[C@@H]1CCC2=O
Activity (Xenopus laevis [1]): inactive
Ratio (Oocyte [2]): -0.02
Ratio (Oocyte [3]): 2.42
Ratio (Oocyte [4]): 1
ED50 (Xenopus laevis [5]): 4.01 µM
IC50 [6]: 5.01 µM
Ratio (Oocyte [7]): 1

C[C@]12CC[C@@H](O)C[C@@H]1CC[C@@H]1[C@@H]2CC[C@@]2(C)[C@H]1CC[C@@]21CO1
Ratio (Oocyte [2]): 0.22
Ratio (Oocyte [3]): 33.7
EC50 [9]: 0.44 µM
Activity (HEK293 [10]): 269%
ED50 (Xenopus laevis [8]): 2.76 µM
Ratio (Oocyte [4]): 3.11
EC50 [11]: 0.13 µM
Activity (HEK293 [12]): 251%
ED50 (Xenopus laevis [5]): 1.35 µM
IC50 [6]: 0.11 µM
Ratio (Oocyte [7]): 21.9

C[C@]12C[C@H]3CC[C@@H]4C[C@@H](O)CC[C@H]4[C@@H]3C[C@@H]1CCC2=O
Activity (Xenopus laevis [1]): inactive
Ratio (Oocyte [2]): 0.05
Ratio (Oocyte [3]): 6.14
Ratio (Oocyte [4]): 0.92
ED50 (Xenopus laevis [5]): 3.17 µM
IC50 [6]: 1.44 µM
Ratio (Oocyte [7]): 1.32

C[C@]12CC[C@@H](O)C[C@@H]1CC[C@@H]1[C@@H]2CC[C@]2(C)C(=O)CC[C@@H]12 [ANDROSTERONE]
Activity (Xenopus laevis [1]): inactive
Ratio (Oocyte [2]): 0.02
Ratio (Oocyte [3]): 5.44
Ratio (Oocyte [4]): 0.97
ED50 (Xenopus laevis [5]): 3.38 µM
IC50 [6]: 0.41 µM
Ratio (Oocyte [7]): 1.41

C[C@]12C[C@H]3CC[C@@H]4C[C@@H](O)CC[C@H]4[C@@H]3C[C@@H]1CC[C@@]21CO1
Ratio (Oocyte [2]): 0.15
Ratio (Oocyte [3]): 29.7
EC50 [9]: 0.34 µM
Activity (HEK293 [10]): 262%
ED50 (Xenopus laevis [8]): 0.87 µM
Ratio (Oocyte [4]): 2.16
EC50 [11]: 0.13 µM
Activity (HEK293 [12]): 220%
ED50 (Xenopus laevis [5]): 0.2 µM
IC50 [6]: 0.04 µM
Ratio (Oocyte [7]): 15.7

C[C@]12C[C@H]3C[C@H]4CC[C@@H](O)C[C@@H]4C[C@@H]3C[C@@H]1CCC2=O
Ratio (Oocyte [2]): 0.28
Ratio (Oocyte [3]): 28.4
ED50 (Xenopus laevis [8]): 5.48 µM
Ratio (Oocyte [4]): 1.1
ED50 (Xenopus laevis [5]): 1.86 µM
IC50 [6]: 0.25 µM
Ratio (Oocyte [7]): 5.03
